Data from patent publication US20240239806A1, “COMPOUNDS, COMPOSITIONS AND METHODS OF TREATING DISORDERS” (Chengdu Anticancer Bioscience, Ltd., priority 2021, published 2024).
Where two headings read alike, the source gives them in different places.

Tests used:
Assay type in all cases: cell-based
[1] = test system: T2 HCC; assay: MECP in cancer cell line; conditions: Mus musculus
Summary of the method: (§1)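 Imaging read-out (IN-Cell 2000): mitotic index at 24 h, polyploidy/DNA content at 48 h, also 72 h. Cells in DMEM/5% FBS, 37 °C, 5% CO2; compound 1 nM–30 μM. Binned A ≤1.0 μM, B ≤10.0 μM, C ≤30.0 μM, D >30.0 μM.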

[2] = test system: NCI-H596; assay: MECP in cancer cell line; conditions: Homo sapiens
Summary of the method: as §1

[3] = test system: NCI-H460; assay: MECP in cancer cell line; conditions: Homo sapiens
Summary of the method: as §1

[4] = test system: Hela; assay: MECP in cancer cell line; conditions: Homo sapiens
Summary of the method: as §1

[5] = test system: T98G; assay: MECP in cancer cell line; conditions: Homo sapiens
Summary of the method: as §1

[6] = test system: MDA-MB-231; assay: MECP in cancer cell line; conditions: Homo sapiens
Summary of the method: as §1

[7] = test system: HCT116; assay: MECP in cancer cell line; conditions: Homo sapiens, HCT-116
Summary of the method: as §1

[8] = test system: T2 HCC; assay: MTT assay of cellular proliferation; conditions: Mus musculus, 50% inhibition of cellular proliferation
Summary of the method: (§2)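 Compound dosing: 1 nM to 30 μM on subconfluent (20-30%) cultures in DMEM, 5% FBS. Readout was MTT reduction over 3-4 h, formazan at A570; EC50 derived.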

[9] = test system: NCI-H23; assay: MTT assay of cellular proliferation; conditions: Homo sapiens, 50% inhibition of cellular proliferation
Summary of the method: as §2

[10] = test system: NCI-H596; assay: MTT assay of cellular proliferation; conditions: Homo sapiens, 50% inhibition of cellular proliferation
Summary of the method: as §2

[11] = test system: NCI-H460; assay: MTT assay of cellular proliferation; conditions: Homo sapiens, 50% inhibition of cellular proliferation
Summary of the method: as §2

[12] = test system: Hela; assay: MTT assay of cellular proliferation; conditions: Homo sapiens, 50% inhibition of cellular proliferation
Summary of the method: as §2

[13] = test system: T98G; assay: MTT assay of cellular proliferation; conditions: Homo sapiens, 50% inhibition of cellular proliferation
Summary of the method: as §2

[14] = test system: MDA-MB-231; assay: MTT assay of cellular proliferation; conditions: Homo sapiens; MDA-MB-231, MTT, 50% inhibition of cellular proliferation
Summary of the method: as §2

[15] = test system: HCT116; assay: MTT assay of cellular proliferation; conditions: Homo sapiens, HCT-116, 50% inhibition of cellular proliferation
Summary of the method: as §2

[16] = test system: RPEMYC^H2B-GFP cells; assay: Phenotypic screening assay (mitotic arrest, polyploidy); conditions: 1 nM to 30 μM; for IC50: read-out: Proliferative arrest (>50%)
Summary of the method: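 RPE cells expressing MYC and H2B-EGFP treated with compound at 1 nM–30 μM; mitotic index scored at 24 h and polyploidy (DNA content) at 48 h by automated imaging, with reads at 24, 48 or 72 h. Hits show transient mitotic arrest followed by polyploid accumulation.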

[17] = read-out: Min. Effective conc. for Polyploidy (≥5%)

| Structure (SMILES) | minimal effective concentration [1] | minimal effective concentration [2] | minimal effective concentration [3] | minimal effective concentration [4] | minimal effective concentration [5] | minimal effective concentration [6] | minimal effective concentration [7] | EC50 [8] | EC50 [9] | EC50 [10] | EC50 [11] | EC50 [12] | EC50 [13] | EC50 [14] | EC50 [15] | minimal effective concentration [16, 17] | minimal effective concentration ([16]; read-out: Mitotic Arrest (≥5%)) | IC50 [16] | also measured |
| --- | --- | --- | --- | --- | --- | --- | --- | --- | --- | --- | --- | --- | --- | --- | --- | --- | --- | --- | --- |
| COc1cc(OC)cc(Oc2ccnc3ccccc23)c1 [Compound 7, 4-(3,5-dimethoxyphenoxy)quinoline] | 1 to 10 µM | 0.001 to 1 µM | 1 to 10 µM | 0.001 to 1 µM | 0.001 to 1 µM | 0.001 to 1 µM | 0.001 to 1 µM | 1000 to 10000 nM | 1 to 1000 nM | 1000 to 10000 nM | 1000 to 10000 nM | 1000 to 10000 nM | 1 to 1000 nM | 1 to 1000 nM | 1 to 1000 nM | 0.001 to 1 µM | 0.001 to 1 µM | 1 to 1000 nM | – |
| COC(=O)c1cc(OC)cc(Oc2ncnc3ccsc23)c1 [Compound 37, methyl 3-methoxy-5-(thieno[3,2-d]pyrimidin-4-yloxy)benzoate] | 0.001 to 1 µM | 0.001 to 1 µM | 1 to 10 µM | 0.001 to 1 µM | 1 to 10 µM | 0.001 to 1 µM | 0.001 to 1 µM | 1 to 1000 nM | 1 to 1000 nM | 1 to 1000 nM | > 30000 nM | 1 to 1000 nM | > 30000 nM | 1 to 1000 nM | 1 to 1000 nM | 0.001 to 1 µM | 0.001 to 1 µM | 1 to 1000 nM | – |
| COC(=O)c1cc(OC)cc(Oc2ncnc3cc(OC)c(OC)cc23)c1 [Compound 29] | 0.001 to 1 µM | 0.001 to 1 µM | 1 to 10 µM | 0.001 to 1 µM | 1 to 10 µM | 1 to 10 µM | 1 to 10 µM | 1 to 1000 nM | 1 to 1000 nM | 1 to 1000 nM | > 30000 nM | 1 to 1000 nM | 1000 to 10000 nM | 1 to 1000 nM | 1000 to 10000 nM | 0.001 to 1 µM | 0.001 to 1 µM | 1 to 1000 nM | – |
| COC(=O)c1cc(OC)cc(Oc2ncnc3cc[nH]c23)c1 [Compound 34, methyl 3-((5H-pyrrolo[3,2-d]pyrimidin-4-yl)oxy)-5-methoxybenzoate] | 0.001 to 1 µM | 0.001 to 1 µM | 1 to 10 µM | 0.001 to 1 µM | 1 to 10 µM | 0.001 to 1 µM | 0.001 to 1 µM | 1 to 1000 nM | 1 to 1000 nM | 1 to 1000 nM | > 30000 nM | 1 to 1000 nM | > 30000 nM | 1 to 1000 nM | 1 to 1000 nM | 0.001 to 1 µM | 0.001 to 1 µM | 1 to 1000 nM | – |
| COC(=O)c1cc(Oc2ncnc3cc[nH]c23)cc(C(=O)OC)c1 [Compound 36, dimethyl 5-((5H-pyrrolo[3,2-d]pyrimidin-4-yl)oxy)isophthalate] | 0.001 to 1 µM | 0.001 to 1 µM | 1 to 10 µM | 0.001 to 1 µM | 0.001 to 1 µM | 0.001 to 1 µM | 0.001 to 1 µM | 1 to 1000 nM | 1 to 1000 nM | 1 to 1000 nM | > 30000 nM | 1 to 1000 nM | 1 to 1000 nM | 1 to 1000 nM | 1 to 1000 nM | 0.001 to 1 µM | 0.001 to 1 µM | 1 to 1000 nM | – |
| COC(=O)c1cc(Oc2ncnc3ccsc23)cc(C(=O)OC)c1 [Compound 39, dimethyl 5-(thieno[3,2-d]pyrimidin-4-yloxy)isophthalate] | 0.001 to 1 µM | 0.001 to 1 µM | 1 to 10 µM | 0.001 to 1 µM | 0.001 to 1 µM | 0.001 to 1 µM | 0.001 to 1 µM | 1 to 1000 nM | 1 to 1000 nM | > 30000 nM | > 30000 nM | 1 to 1000 nM | 1 to 1000 nM | 1 to 1000 nM | 1 to 1000 nM | 0.001 to 1 µM | 0.001 to 1 µM | 1 to 1000 nM | Min. Effective conc. for Polyploidy (≥5%) [16]: B (a value greater than 1.00 μM and less than or equal to 10.0 μM); Mitotic Arrest (≥5%) [16]: B (a value greater than 1.00 μM and less than or equal to 10.0 μM); Proliferative arrest (>50%) [16]: B (a value greater than 1.00 μM and less than or equal to 10.0 μM); Along with Cell Death ([16]; listed as 33): B (a value greater than 1.00 μM and less than or equal to 10.0 μM) |
